Values quoted from earlier work, collected in patent publication US6080725A, “Immunostimulating and vaccine compositions employing saponin analog adjuvants and uses thereof” (priority 1999, dated 2000).
Read-outs that look alike come from different tables or passages of the source.

Tested on: lymphoproliferative test

Structure (SMILES): CC(=O)O[C@@H]1[C@H](O[C@@H]2O[C@@H](CO)[C@H](O)[C@H]2O)[C@@H](O[C@@H]2O[C@@H](C)[C@H](O[C@@H]3OC[C@@H](O)[C@H](O)[C@H]3O)[C@@H](O)[C@H]2O)[C@H](OC(=O)[C@]23CCC(C)(C)C[C@H]2C2=CC[C@@H]4[C@@]5(C)CC[C@H](O[C@@H]6O[C@H](C(=O)O)[C@@H](O)[C@H](O[C@@H]7OC[C@@H](O)[C@H](O)[C@H]7O)[C@H]6O[C@@H]6O[C@H](CO)[C@H](O)[C@H](O)[C@H]6O)[C@@](C)(C=O)[C@H]5CC[C@@]4(C)[C@]2(C)CC3)O[C@@H]1C [squarroside A]
- immunomodulating effect, lymphoproliferative test (concentrations in the pg range): stimulant effect
- immunomodulating effect, lymphoproliferative test (concentrations in the μg range): suppressive effect
- immunomodulating activity, lymphoproliferative test (dose-dependent): immunomodulating activity
